{"source": "paper PMC8014548", "about": "“Applying the CiPA approach to evaluate cardiac proarrhythmia risk of some antimalarials used off‐label in the first wave of COVID‐19” (Clinical and Translational Science, 2021)", "key": {"[1]": {"target": "T1, Kir2.1 (Homo sapiens, UniProt P63252)", "T1 construct": "gene KCNJ2; stably expressed in CHO cells; IK1 current; homotetramer", "T1 sequence (P63252 1-427)": "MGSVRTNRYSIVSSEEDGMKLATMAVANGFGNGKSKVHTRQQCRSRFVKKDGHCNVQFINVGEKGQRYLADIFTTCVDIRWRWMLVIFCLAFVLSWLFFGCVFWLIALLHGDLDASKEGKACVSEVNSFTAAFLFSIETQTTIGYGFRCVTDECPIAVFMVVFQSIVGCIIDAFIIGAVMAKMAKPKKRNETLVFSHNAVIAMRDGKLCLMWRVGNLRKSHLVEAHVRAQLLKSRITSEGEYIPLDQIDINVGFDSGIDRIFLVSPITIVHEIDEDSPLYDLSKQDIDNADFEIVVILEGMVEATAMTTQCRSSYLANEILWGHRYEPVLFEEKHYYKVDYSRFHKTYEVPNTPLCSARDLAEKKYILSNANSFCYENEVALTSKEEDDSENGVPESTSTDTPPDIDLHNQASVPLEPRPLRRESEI", "test": "automated patch clamp (QPatch)", "type": "cell-based", "source_text": "automated patch clamp (QPatch) on Kir2.1"}, "[2]": {"target": "T2, HCN4 (Homo sapiens, UniProt Q9Y3Q4)", "T2 construct": "stably expressed in HEK 293 cells; If current; homotetramer", "T2 sequence (Q9Y3Q4 1-1203)": "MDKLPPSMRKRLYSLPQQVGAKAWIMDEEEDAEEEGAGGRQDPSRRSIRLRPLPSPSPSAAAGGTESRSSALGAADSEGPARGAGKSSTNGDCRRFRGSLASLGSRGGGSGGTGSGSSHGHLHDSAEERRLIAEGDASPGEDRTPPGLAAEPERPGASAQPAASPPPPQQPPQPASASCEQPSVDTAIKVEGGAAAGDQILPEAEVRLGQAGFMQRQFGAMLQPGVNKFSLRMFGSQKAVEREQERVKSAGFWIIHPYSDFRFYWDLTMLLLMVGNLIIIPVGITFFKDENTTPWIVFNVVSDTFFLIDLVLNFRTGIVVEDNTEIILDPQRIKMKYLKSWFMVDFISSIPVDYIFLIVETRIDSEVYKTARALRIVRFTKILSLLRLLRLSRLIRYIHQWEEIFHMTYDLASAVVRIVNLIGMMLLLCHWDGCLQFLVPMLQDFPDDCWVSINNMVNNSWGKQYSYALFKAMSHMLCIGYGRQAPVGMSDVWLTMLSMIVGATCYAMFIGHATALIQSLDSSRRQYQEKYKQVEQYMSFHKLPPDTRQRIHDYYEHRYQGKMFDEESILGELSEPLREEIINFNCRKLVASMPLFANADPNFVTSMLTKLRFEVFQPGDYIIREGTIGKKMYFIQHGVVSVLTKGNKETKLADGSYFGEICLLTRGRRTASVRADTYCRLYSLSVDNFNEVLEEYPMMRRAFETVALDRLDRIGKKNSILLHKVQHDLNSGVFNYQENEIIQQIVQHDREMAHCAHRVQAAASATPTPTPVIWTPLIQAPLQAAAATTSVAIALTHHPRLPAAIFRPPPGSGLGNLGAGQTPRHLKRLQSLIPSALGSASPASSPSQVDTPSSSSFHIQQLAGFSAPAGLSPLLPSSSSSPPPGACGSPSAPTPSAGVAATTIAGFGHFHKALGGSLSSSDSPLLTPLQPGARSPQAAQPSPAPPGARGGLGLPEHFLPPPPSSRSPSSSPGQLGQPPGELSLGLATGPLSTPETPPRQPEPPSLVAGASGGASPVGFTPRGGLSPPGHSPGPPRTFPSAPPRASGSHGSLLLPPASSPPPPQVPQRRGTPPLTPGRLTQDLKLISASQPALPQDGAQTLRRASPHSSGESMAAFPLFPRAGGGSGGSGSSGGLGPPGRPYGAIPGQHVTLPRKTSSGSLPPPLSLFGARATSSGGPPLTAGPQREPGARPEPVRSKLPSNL", "test": "automated patch clamp (SyncroPatch […]PE)", "type": "cell-based"}, "[3]": {"target": "T3, CaV1.2 (coexpressed with β2/α2δ1) (Homo sapiens, UniProt Q13936)", "T3 construct": "gene CACNA1C; stably expressed in CHO cells with beta2 and alpha2delta1; with Voltage-dependent L-type calcium channel subunit beta-2; Voltage-dependent calcium channel subunit alpha-2/delta-1", "T3 sequence (Q13936 whole entry)": "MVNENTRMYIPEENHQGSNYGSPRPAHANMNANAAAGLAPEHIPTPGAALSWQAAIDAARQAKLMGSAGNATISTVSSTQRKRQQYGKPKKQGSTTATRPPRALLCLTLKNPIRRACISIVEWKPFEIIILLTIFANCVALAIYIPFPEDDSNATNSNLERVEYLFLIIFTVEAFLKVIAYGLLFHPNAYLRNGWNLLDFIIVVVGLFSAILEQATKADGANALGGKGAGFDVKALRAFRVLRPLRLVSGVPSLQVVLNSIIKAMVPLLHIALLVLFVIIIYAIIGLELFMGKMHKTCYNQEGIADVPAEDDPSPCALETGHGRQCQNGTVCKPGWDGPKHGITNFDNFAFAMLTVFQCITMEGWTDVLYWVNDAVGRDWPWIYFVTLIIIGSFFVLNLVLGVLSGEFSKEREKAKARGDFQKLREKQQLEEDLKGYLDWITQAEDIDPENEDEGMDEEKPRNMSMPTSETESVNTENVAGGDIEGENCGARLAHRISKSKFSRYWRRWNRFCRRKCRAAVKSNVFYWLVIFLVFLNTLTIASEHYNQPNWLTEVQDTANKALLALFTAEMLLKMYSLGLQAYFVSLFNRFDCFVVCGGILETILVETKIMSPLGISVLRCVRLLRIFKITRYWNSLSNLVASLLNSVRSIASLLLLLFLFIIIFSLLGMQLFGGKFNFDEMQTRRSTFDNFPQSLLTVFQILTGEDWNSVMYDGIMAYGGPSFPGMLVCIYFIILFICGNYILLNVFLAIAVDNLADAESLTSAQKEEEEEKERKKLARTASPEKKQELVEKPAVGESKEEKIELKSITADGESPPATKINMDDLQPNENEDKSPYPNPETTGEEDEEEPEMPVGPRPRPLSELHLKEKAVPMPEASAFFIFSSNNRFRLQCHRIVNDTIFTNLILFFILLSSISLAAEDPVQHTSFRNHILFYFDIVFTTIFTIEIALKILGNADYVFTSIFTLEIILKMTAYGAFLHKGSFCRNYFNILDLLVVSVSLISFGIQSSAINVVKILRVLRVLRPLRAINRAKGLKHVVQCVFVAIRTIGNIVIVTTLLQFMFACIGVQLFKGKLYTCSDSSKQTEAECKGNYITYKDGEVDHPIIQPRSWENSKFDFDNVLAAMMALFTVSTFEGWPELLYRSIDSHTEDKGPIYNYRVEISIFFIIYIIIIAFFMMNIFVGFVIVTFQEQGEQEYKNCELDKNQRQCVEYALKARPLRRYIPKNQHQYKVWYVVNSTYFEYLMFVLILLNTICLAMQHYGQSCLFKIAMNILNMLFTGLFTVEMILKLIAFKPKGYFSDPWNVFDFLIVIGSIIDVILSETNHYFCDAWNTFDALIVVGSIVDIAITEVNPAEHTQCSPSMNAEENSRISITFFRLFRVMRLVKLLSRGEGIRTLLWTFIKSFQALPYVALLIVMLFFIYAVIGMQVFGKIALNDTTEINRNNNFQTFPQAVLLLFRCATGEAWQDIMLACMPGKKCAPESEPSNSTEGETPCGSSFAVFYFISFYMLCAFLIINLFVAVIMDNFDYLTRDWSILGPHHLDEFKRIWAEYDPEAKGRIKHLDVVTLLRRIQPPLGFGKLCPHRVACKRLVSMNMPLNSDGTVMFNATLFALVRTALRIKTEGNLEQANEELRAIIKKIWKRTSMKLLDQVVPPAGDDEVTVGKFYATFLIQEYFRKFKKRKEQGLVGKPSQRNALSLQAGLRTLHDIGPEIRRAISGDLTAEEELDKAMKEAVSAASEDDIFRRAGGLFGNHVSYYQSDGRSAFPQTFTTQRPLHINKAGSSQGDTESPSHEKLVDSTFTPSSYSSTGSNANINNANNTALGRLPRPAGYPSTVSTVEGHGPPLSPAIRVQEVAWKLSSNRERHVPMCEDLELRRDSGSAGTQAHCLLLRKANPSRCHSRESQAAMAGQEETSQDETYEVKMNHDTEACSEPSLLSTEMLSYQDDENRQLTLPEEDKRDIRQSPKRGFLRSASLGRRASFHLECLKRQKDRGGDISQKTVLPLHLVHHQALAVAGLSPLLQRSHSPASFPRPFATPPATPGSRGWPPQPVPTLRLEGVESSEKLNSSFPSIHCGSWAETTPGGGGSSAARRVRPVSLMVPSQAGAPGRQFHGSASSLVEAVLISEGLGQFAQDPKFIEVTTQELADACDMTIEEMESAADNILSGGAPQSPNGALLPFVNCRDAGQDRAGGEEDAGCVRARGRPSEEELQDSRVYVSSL", "T3 sequence (Q08289 whole entry partner)": "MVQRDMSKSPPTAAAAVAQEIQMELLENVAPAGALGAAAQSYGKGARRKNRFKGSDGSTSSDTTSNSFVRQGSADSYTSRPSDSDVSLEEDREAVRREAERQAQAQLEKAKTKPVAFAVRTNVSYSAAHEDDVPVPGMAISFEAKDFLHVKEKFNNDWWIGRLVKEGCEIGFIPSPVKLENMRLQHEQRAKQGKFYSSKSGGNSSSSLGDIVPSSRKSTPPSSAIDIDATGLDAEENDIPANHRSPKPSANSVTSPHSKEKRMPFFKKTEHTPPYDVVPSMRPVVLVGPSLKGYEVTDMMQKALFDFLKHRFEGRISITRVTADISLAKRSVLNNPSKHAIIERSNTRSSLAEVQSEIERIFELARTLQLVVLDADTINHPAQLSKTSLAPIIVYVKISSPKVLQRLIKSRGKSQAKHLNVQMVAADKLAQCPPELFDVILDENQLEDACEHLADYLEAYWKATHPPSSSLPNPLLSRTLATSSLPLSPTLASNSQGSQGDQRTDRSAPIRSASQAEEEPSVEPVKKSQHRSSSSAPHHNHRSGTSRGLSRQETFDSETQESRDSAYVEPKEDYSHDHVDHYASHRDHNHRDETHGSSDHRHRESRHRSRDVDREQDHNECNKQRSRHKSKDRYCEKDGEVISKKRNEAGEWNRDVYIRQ", "T3 sequence (P54289 25-956 partner)": "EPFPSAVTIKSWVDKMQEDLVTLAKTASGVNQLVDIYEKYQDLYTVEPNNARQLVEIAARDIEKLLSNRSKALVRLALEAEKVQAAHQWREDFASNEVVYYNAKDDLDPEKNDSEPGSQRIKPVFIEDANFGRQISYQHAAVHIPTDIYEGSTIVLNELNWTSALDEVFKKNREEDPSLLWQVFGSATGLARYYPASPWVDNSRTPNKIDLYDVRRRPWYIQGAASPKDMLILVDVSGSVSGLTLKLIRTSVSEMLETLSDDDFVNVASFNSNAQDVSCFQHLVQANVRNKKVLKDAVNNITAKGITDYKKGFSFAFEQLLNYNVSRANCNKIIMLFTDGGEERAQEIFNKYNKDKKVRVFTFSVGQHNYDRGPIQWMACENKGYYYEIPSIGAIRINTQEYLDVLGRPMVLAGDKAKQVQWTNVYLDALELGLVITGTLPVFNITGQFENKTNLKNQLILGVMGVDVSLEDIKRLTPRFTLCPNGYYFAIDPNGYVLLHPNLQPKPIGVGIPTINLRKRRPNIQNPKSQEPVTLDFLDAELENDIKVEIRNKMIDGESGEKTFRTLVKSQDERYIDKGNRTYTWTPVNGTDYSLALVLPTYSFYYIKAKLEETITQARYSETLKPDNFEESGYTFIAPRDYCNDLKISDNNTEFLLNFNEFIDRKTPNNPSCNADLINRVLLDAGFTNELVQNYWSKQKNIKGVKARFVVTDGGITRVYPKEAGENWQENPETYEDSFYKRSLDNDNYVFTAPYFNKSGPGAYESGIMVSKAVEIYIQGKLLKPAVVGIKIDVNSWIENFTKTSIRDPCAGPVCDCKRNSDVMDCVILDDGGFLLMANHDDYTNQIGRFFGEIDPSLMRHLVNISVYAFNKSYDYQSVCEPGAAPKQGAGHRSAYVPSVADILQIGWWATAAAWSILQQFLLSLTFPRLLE", "T3 sequence (P54289 957-1103 partner)": "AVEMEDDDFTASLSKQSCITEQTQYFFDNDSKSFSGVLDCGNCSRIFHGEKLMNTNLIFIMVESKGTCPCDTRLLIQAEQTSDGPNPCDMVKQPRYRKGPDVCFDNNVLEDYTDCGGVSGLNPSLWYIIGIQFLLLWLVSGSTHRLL", "test": "automated patch clamp (SyncroPatch […]PE)", "type": "cell-based", "settings": "read-out: CaV1.2 peak"}, "[4]": {"target": "T4, NaV1.5 (Homo sapiens, UniProt Q14524)", "T4 construct": "gene SCN5A; stably expressed in CHO cells; no beta subunit mentioned", "test": "automated patch clamp (SyncroPatch […]PE)", "type": "cell-based", "settings": "read-out: NaV1.5 peak"}, "[5]": {"target": "T5, KV7.1/minK (Homo sapiens, UniProt P51787)", "T5 construct": "gene KCNQ1; stably expressed in CHO cells; IKs current", "T5 sequence (P51787 whole entry)": "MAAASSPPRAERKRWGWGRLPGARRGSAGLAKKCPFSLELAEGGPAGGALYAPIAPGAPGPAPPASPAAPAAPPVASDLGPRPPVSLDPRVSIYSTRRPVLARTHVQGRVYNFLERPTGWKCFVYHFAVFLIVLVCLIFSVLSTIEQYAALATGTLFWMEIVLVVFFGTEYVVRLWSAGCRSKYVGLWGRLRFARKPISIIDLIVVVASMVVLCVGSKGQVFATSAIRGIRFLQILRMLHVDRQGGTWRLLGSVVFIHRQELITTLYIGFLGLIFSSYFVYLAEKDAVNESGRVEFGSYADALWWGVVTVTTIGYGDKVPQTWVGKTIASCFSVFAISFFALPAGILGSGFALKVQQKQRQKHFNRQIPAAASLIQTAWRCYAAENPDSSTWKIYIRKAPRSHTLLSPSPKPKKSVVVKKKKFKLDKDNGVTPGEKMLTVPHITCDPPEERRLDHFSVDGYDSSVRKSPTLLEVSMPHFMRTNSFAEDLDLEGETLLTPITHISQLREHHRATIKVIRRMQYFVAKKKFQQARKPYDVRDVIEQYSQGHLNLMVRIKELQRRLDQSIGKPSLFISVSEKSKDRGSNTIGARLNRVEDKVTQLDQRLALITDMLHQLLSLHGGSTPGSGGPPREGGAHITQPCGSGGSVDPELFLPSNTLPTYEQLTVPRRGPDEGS", "test": "automated patch clamp (SyncroPatch […]PE)", "type": "cell-based"}, "[6]": {"target": "T6, hERG (Homo sapiens, UniProt Q12809)", "T6 construct": "gene KCNH2; stably expressed in CHO cells; IKr current; homotetramer", "test": "automated patch clamp (SyncroPatch […]PE)", "type": "cell-based"}, "[7]": {"test": "automated patch clamp (SyncroPatch […]PE)", "type": "cell-based, Homo sapiens", "settings": "read-out: CaV1.2 ramp"}, "[8]": {"test": "automated patch clamp (SyncroPatch […]PE)", "type": "cell-based, Homo sapiens", "settings": "read-out: CaV1.2 ramp", "remark": "listed apart in the source"}}, "note": "Where two headings read alike, the source gives them in different places."}
{"smiles": "CC[C@H]1OC(=O)[C@H](C)[C@@H](O[C@H]2C[C@@](C)(OC)[C@@H](O)[C@H](C)O2)[C@H](C)[C@@H](O[C@@H]2O[C@H](C)C[C@H](N(C)C)[C@H]2O)[C@](C)(O)C[C@@H](C)CN(C)[C@H](C)[C@@H](O)[C@]1(C)O", "note": "[azithromycin]", "values": [{"measurement": "IC50", "setting": "[1]; read-out: NaV1.5 late", "result": "> 1000", "unit": "µM"}, {"measurement": "IC50", "setting": "[2]; read-out: NaV1.5 late", "result": "> 1000", "unit": "µM"}, {"measurement": "IC50", "setting": "[3]", "result": 771, "unit": "µM"}, {"measurement": "IC50", "setting": "[4]", "result": 612, "unit": "µM"}, {"measurement": "IC50", "setting": "[5]; read-out: NaV1.5 late", "result": "> 1", "unit": "mM"}, {"measurement": "IC50", "setting": "[6]", "result": 439, "unit": "µM"}]}
{"smiles": "CCN(CCO)CCCC(C)Nc1ccnc2cc(Cl)ccc12", "note": "(stereo not shown) [hydroxychloroquine]", "values": [{"measurement": "IC50", "setting": "[1]; read-out: NaV1.5 peak", "result": 44.2, "unit": "µM"}, {"measurement": "IC50", "setting": "[7]", "result": "> 300", "unit": "µM"}, {"measurement": "IC50", "setting": "[3]", "result": 23.9, "unit": "µM"}, {"measurement": "IC50", "setting": "[4]", "result": 17, "unit": "µM"}, {"measurement": "IC50", "setting": "[8]", "result": "> 300", "unit": "µM"}, {"measurement": "IC50", "setting": "[6]", "result": 2.66, "unit": "µM"}]}
{"smiles": "CC[C@H]1OC(=O)[C@H](C)[C@@H](O[C@H]2C[C@@](C)(OC)[C@@H](O)[C@H](C)O2)[C@H](C)[C@@H](O[C@@H]2O[C@H](C)C[C@H](N(C)C)[C@H]2O)[C@](C)(O)C[C@@H](C)C(=O)[C@H](C)[C@@H](O)[C@]1(C)O", "note": "[erythromycin]", "values": [{"measurement": "IC50", "setting": "[2]; read-out: NaV1.5 peak", "result": "> 1000", "unit": "µM"}, {"measurement": "IC50", "setting": "[5]; read-out: NaV1.5 peak", "result": "> 1", "unit": "mM"}]}
{"smiles": "CCN(CC)CCCC(C)Nc1ccnc2cc(Cl)ccc12", "note": "(stereo not shown) [chloroquine]", "values": [{"measurement": "IC50", "setting": "[1]; read-out: Kir2.1", "result": 4.98, "unit": "µM"}, {"measurement": "IC50", "setting": "[2]; read-out: HCN4", "result": 96.2, "unit": "µM"}, {"measurement": "IC50", "setting": "[3]", "result": 17.9, "unit": "µM"}, {"measurement": "IC50", "setting": "[4]", "result": 13.9, "unit": "µM"}, {"measurement": "IC50", "setting": "[8]", "result": "> 300", "unit": "µM"}]}
